Measurements: ChEMBL document CHEMBL6096664, “Discovery of novel KSP-targeting PROTACs with potent antitumor effects in vitro and in vivo” (Eur J Med Chem, 2025)

How the values were obtained:
HCT-116 [1] = assay: Antitumor activity against human HCT-116 cells xenografted in female BALB/c nu/nu mouse assessed as reduction in tumor weight at 15 mg/kg, ip measured every 2 days for 14 days relative to control; assay type: functional; set-up: scale not given: the % may be the effect or the level left; conditions: time 14 day
HCT-116 [2] = assay: Induction of cell cycle arrest in human HCT-116 cells assessed as accumulation of cells at G1 phase at 10 nM incubated for 24 hrs by RNase A/propidium iodide staining based flow cytometric analysis (reference value: 93.11 %); assay type: functional
[3] = biological target: T1, Protein cereblon/Kinesin-like protein KIF11 (Homo sapiens, UniProt P52732+Q96SW2); assay: PROTAC activity at CRBN/KSP in human HCT-116 cells assessed as induction of KSP degradation at 200 nM pretreated with MG-132 for 2 hrs followed by compound addition for 24 hrs by Western blot analysis; assay type: cell-based
Target sequence in this assay (P52732 whole entry, looked up): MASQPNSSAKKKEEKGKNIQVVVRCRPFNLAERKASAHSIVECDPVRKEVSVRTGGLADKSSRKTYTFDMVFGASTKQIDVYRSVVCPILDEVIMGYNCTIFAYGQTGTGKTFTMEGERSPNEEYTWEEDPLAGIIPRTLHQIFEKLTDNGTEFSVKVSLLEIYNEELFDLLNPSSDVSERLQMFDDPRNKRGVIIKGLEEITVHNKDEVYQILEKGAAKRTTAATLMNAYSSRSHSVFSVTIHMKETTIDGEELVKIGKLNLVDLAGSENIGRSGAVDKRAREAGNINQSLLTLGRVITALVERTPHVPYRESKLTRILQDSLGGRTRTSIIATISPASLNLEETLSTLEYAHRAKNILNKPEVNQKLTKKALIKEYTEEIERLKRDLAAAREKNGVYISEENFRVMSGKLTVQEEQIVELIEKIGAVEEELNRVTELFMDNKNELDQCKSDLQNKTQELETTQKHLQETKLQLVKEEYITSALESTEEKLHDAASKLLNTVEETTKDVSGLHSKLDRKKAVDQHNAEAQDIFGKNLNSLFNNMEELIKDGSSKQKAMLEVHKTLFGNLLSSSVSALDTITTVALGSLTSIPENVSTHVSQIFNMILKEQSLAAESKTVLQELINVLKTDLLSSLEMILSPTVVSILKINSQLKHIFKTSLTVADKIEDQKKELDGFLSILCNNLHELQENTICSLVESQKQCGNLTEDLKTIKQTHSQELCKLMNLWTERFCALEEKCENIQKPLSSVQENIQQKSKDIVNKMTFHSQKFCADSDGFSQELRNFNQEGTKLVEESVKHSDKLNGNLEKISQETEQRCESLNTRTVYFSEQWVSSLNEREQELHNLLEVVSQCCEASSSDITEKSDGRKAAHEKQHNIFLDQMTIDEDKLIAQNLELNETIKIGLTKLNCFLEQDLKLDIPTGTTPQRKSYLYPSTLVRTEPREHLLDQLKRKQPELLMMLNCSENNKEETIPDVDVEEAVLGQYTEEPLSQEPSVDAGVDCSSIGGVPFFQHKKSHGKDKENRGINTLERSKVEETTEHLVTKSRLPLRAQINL
Target sequence in this assay (Q96SW2 whole entry, looked up): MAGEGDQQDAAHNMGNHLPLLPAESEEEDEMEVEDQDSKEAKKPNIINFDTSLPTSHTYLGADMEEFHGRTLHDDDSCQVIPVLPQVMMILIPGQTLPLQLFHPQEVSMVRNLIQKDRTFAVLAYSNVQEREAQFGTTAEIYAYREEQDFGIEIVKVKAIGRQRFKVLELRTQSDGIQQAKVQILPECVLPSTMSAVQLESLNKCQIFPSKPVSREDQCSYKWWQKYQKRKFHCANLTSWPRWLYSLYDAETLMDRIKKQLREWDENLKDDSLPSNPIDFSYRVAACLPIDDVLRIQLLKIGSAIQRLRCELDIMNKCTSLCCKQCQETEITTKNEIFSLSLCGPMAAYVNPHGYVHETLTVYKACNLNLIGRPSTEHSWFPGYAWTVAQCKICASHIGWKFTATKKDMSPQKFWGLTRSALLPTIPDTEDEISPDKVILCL

HCT-116 [4] = assay: Induction of cell cycle arrest in human HCT-116 cells assessed as accumulation of cells at G1 phase at 100 nM incubated for 24 hrs by RNase A/propidium iodide staining based flow cytometric analysis (reference value: 93.11 %); assay type: functional
[5] = biological target: T1, Protein cereblon/Kinesin-like protein KIF11; assay: PROTAC activity at CRBN/KSP in human HCT-116 cells assessed as induction of KSP degradation incubated for 48 hrs by Western blot analysis; assay type: cell-based
[6] = biological target: T1, Protein cereblon/Kinesin-like protein KIF11; assay: PROTAC activity at CRBN/KSP in human HCT-116 cells assessed as induction of KSP degradation at 200 nM pretreated with MLN4924 for 2 hrs followed by compound addition for 24 hrs by Western blot analysis; assay type: cell-based
Target sequence in this assay (P52732 whole entry, looked up): as the sequence (P52732 whole entry, looked up) above
Target sequence in this assay (Q96SW2 whole entry, looked up): as the sequence (Q96SW2 whole entry, looked up) above

HCT-116 [7] = assay: Induction of apoptosis in human HCT-116 cells assessed as viable cells at 10 nM incubated for 48 hrs by Annexin V-FITC/PI staining based flow cytometry analysis (reference value: 94.31 %); assay type: functional; conditions: read-out: Activity
HCT-116 [8] = assay: Induction of apoptosis in human HCT-116 cells assessed as late apoptotic cells at 100 nM incubated for 48 hrs by Annexin V-FITC/PI staining based flow cytometry analysis (reference value: 1.36 %); assay type: functional
HCT-116 [9] = assay: Induction of apoptosis in human HCT-116 cells assessed as viable cells at 100 nM incubated for 48 hrs by Annexin V-FITC/PI staining based flow cytometry analysis (reference value: 94.31 %); assay type: functional; conditions: read-out: Activity
HCT-116 [10] = assay: Induction of apoptosis in human HCT-116 cells assessed as late apoptotic cells at 10 nM incubated for 48 hrs by Annexin V-FITC/PI staining based flow cytometry analysis (reference value: 1.36 %); assay type: functional
HCT-116 [11] = assay: Antitumor activity against human HCT-116 cells xenografted in female BALB/c nu/nu mouse assessed as reduction in tumor volume at 7.5 mg/kg, ip measured every 2 days for 14 days relative to control; assay type: functional; set-up: scale not given: the % may be the effect or the level left; conditions: time 14 day
HCT-116 [12] = assay: Induction of cell cycle arrest in human HCT-116 cells assessed as accumulation of cells at S phase at 100 nM incubated for 24 hrs by RNase A/propidium iodide staining based flow cytometric analysis (reference value: 2.84 %); assay type: functional
[13] = Toxicity in female BALB/c nu/nu nude mouse xenografted with human HCT-116 cells assessed as body weight loss at 7.5 to 15 mg/kg, ip measured every 2 days for 14 days; assay type: organism-based; conditions: in vivo, 336 h, dose 7.5-15 mg/kg, time 14 day
HCT-116 [14] = assay: Induction of cell cycle arrest in human HCT-116 cells assessed as accumulation of cells at G2/M phase at 10 nM incubated for 24 hrs by RNase A/propidium iodide staining based flow cytometric analysis (reference value: 4.05 %); assay type: functional
[15] = biological target: T1, Protein cereblon/Kinesin-like protein KIF11; assay: PROTAC activity at CRBN/KSP in human HCT-116 cells assessed as induction of KSP degradation by measuring maximal efficacy incubated for 48 hrs by Western blot analysis relative to control; assay type: cell-based
Target sequence in this assay (P52732 whole entry, looked up): as the sequence (P52732 whole entry, looked up) above
Target sequence in this assay (Q96SW2 whole entry, looked up): as the sequence (Q96SW2 whole entry, looked up) above

HCT-116 [16] = assay: Induction of apoptosis in human HCT-116 cells assessed as necrotic cells at 100 nM incubated for 48 hrs by Annexin V-FITC/PI staining based flow cytometry analysis (reference value: 1.31 %); assay type: functional
HCT-116 [17] = assay: Induction of apoptosis in human HCT-116 cells assessed as early apoptotic cells at 100 nM incubated for 48 hrs by Annexin V-FITC/PI staining based flow cytometry analysis (reference value: 3.02 %); assay type: functional
HCT-116 [18] = assay: Antitumor activity against human HCT-116 cells xenografted in female BALB/c nu/nu mouse assessed as reduction in tumor weight at 7.5 mg/kg, ip measured every 2 days for 14 days relative to control; assay type: functional; set-up: scale not given: the % may be the effect or the level left; conditions: time 14 day
MDA-MB-231 = assay: Antiproliferative activity against human MDA-MB-231 cells assessed as inhibition of cell proliferation measured after 72 hrs by CCK8 assay; assay type: functional, cell-based; conditions: MDA-MB-231, 72 h
[19] = biological target: T1, Protein cereblon/Kinesin-like protein KIF11; assay: PROTAC activity at CRBN/KSP in human HCT-116 cells assessed as reduction of KSP protein level at 200 nM by Western blot analysis; assay type: cell-based; conditions: time 6-48 hrs
Target sequence in this assay (P52732 whole entry, looked up): as the sequence (P52732 whole entry, looked up) above
Target sequence in this assay (Q96SW2 whole entry, looked up): as the sequence (Q96SW2 whole entry, looked up) above

HCT-116 [20] = assay: Induction of apoptosis in human HCT-116 cells assessed as early apoptotic cells at 10 nM incubated for 48 hrs by Annexin V-FITC/PI staining based flow cytometry analysis (reference value: 3.02 %); assay type: functional
[21] = biological target: T1, Protein cereblon/Kinesin-like protein KIF11; assay: PROTAC activity at CRBN/KSP in human HCT-116 cells assessed as induction of KSP degradation at 500 nM incubated for 48 hrs by Western blot analysis relative to control; assay type: cell-based
Target sequence in this assay (P52732 whole entry, looked up): as the sequence (P52732 whole entry, looked up) above
Target sequence in this assay (Q96SW2 whole entry, looked up): as the sequence (Q96SW2 whole entry, looked up) above

HCT-116 [22] = assay: Antiproliferative activity against human HCT-116 cells assessed as inhibition of cell proliferation measured after 72 hrs by CCK8 assay; assay type: functional, cell-based; conditions: HCT-116, 72 h

## COc1ccc(C2(SC[C@H](N)C(=O)NCCCCCCCCNC(=O)COc3cccc4c3C(=O)N(C3CCC(=O)NC3=O)C4=O)c3ccccc3C=Cc3ccccc32)cc1 (some centres undefined)
HCT-116 [1]
  Activity: 99%
HCT-116 [2]
  Activity: 75.34%
[3]
  Activity: Not active; Compound Induced Ksp Degradation In Mediated Through Ubiquitin-Proteosome System
HCT-116 [4]
  Activity: 9.98%
[5]
  Activity: Dose-dependent-effect
  DC50: 0.115 µM
[6]
  Activity: Not active; Compound Induced Ksp Degradation In Mediated Through Ubiquitin-Proteosome System
HCT-116 [7]
  viability at 0.01 µM: 57.9%
HCT-116 [8]
  Activity: 25.55%
HCT-116 [9]
  viability at 0.1 µM: 29.1%
HCT-116 [10]
  Activity: 14.96%
HCT-116 [11]
  Activity: 91%
HCT-116 [12]
  Activity: 14.97%
[13]
  Activity: Non-toxic
HCT-116 [14]
  Activity: 14.79%
[15]
  Emax: 90%
HCT-116 [16]
  Activity: 14.98%
HCT-116 [17]
  Activity: 30.35%
HCT-116 [18]
  Activity: 97%
MDA-MB-231
  IC50: 0.0354 µM
[19]
  Activity: Time-dependent-effect; Considerable Ksp Degradation Noticed Within 6 Hrs
HCT-116 [20]
  Activity: 13.51%
[21]
  Activity: 82.1%
HCT-116 [22]
  IC50: 0.0102 µM
